The conditions of data set [1]: from C=CCCCCC[C@H](NC(=O)OC(C)(C)C)C(=O)N1CCC[C@H]1C(=O)N[C@]1(C(=O)OCC)C[C@H]1C=C; rcm bond; Hoveyda 1st generation catalyst; 1,2-dichloroethane; 10.0 mM; 50.0 °C; 16.0 h.
In data set [2] the target is T1, full-length NS3/NS4A-2 (HCV NS3 protease) (Hepatitis C virus genotype 1a, UniProt P27958).
T1 construct: Recombinant E. coli or Baculovirus full-length NS3 was diluted to 3.33 μM with assay buffer; made in house; host or cells: E. coli or baculovirus (BV) expression system
As to the kind of experiment: NS3-NS4 protease assay / NS3 inhibition assay (RETS1 substrate, fluorescence kinetic read). It is filed as biochemical. An outline of the steps: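 Ki values come from IC50 fits corrected via Ki=IC50/(1+[S]/Km), with Km 2.03 μM for E. coli and 1.74 μM for baculovirus full-length NS3. Enzyme (2 or 3 nM NS3, respectively, complexed with NS4A-2) sat with compound, top concentration 50 microM, for 10 min at room temperature. Cleavage of RETS1 (8 μM working solution) was then followed by fluorescence (335/495 nm) over 30 min.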

For data set [3], the system named is HCV sub-genomic replicon in GS4.3 cells (HuH-7 hepatoma cells). The data set is described as follows: Quantitation by ELISA of Neomycin phosphotransferase II (NPTII) in the HCV sub-genomic replicon, GS4.3. As to conditions: Hepatitis C virus, Huh-7; GS4.3 cells, 72 h incubation, NPTII ELISA; read-out: Replicon EC50. The data set is classed as cell-based, hepatitis C virus. A digest of the protocol: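 Replicon-bearing HuH-7 (GS4.3) cells were exposed to compounds for 72 h in G418-free medium, top final concentration 10 μM, 1% DMSO. Lysates went to an NPTII ELISA read at 450 nm. Signal was normalised to DMSO-treated wells and EC50 was derived by four-parameter curve fitting.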

Where [4] appears, read: recombinant E. coli or Baculovirus full-length NS3 with NS4A-2, read-out: NS3-NS4 IC50.

Like-named read-outs stand apart in the source and are kept apart here. Where only a bound is given, the exact number is not on record here.

By IC50 is commonly meant the point on the concentration scale where inhibition reaches its midpoint. Broadly, the EC50 is the concentration needed to bring the measured effect to its halfway point.

T1 sequence (P27958 1027-1657): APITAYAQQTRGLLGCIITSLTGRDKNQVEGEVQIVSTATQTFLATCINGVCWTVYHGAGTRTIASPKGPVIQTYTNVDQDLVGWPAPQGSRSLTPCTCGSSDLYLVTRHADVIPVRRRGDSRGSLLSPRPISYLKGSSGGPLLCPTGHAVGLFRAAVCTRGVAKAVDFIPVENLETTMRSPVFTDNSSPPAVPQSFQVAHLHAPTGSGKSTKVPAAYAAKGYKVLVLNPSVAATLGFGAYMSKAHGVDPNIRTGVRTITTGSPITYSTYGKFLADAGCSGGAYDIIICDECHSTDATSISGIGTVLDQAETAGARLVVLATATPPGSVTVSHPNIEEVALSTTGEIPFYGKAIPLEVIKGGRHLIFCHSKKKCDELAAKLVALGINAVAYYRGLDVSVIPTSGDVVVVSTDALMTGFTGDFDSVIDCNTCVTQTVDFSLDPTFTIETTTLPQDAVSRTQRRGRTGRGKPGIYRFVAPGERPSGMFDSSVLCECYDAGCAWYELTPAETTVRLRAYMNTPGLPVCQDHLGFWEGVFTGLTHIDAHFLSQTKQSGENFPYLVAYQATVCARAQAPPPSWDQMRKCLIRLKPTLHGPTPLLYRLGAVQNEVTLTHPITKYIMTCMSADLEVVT

Take `CCOC(=O)[C@@]12C[C@H]1C=CCCCCC[C@H](NC(=O)OC(C)(C)C)C(=O)N1CCC[C@H]1C(=O)N2`: the ring closure, yield of all isomers in data set [1] was 76%.

Regarding `CC(C)(C)OC(=O)N[C@H]1CCOCC/C=C\[C@@H]2C[C@@]2(C(=O)O)NC(=O)[C@@H]2C[C@@H](OC(=O)N3Cc4cccc(F)c4C3)CN2C1=O` [Compound 1026], in data set [2] (setting [4]), the IC50 is below 100 nM. Moreover, the EC50 in data set [3] was below 10000 nM.

Take `CC(C)(C)OC(=O)N[C@H]1CCCCC/C=C\[C@@H]2C[C@@]2(C(=O)NS(=O)(=O)C2(Cc3ccccc3)CC2)NC(=O)[C@@H]2C[C@@H](OC(=O)N3Cc4ccccc4C3)CN2C1=O` [Compound 101]: the IC50 in data set [2] (setting [4]) is below 100 nM. Moreover, the EC50 in data set [3] is below 100 nM.

Turning to `CC(C)(C)OC(=O)N[C@H]1COCCC/C=C\[C@@H]2C[C@@]2(C(=O)O)NC(=O)[C@@H]2C[C@@H](OC(=O)N3Cc4cccc(Cl)c4C3)CN2C1=O` [Compound 1024], the half-maximal inhibitory concentration (IC50) in data set [2] (setting [4]) is below 100 nM. The EC50 in data set [3] was below 100 nM.

Regarding `CC(C)(C)OC(=O)N[C@H]1CCCCC/C=C\[C@@H]2C[C@@]2(C(=O)NS(=O)(=O)C2CC2)NC(=O)[C@@H]2C[C@@H](OC(=O)N3Cc4cccc(C(F)(F)F)c4C3)CN2C1=O` [Compound 170], the IC50 in data set [2] (setting [4]) was below 100 nM. Further, in data set [3], the EC50 was below 100 nM.

`O=C1N[C@]2(C(=O)NS(=O)(=O)C3CC3)C[C@H]2/C=C\CCCCC[C@H](Nc2c(N3CCC3)c(=O)c2=O)C(=O)N2C[C@H](OC(=O)N3CCc4ccccc4C3)C[C@@H]12` [Compound 242]: in data set [2] (setting [4]), the IC50 was below 100 nM. For the same molecule, the EC50 in data set [3] is below 10000 nM.

As for `O=C1N[C@]2(C(=O)NS(=O)(=O)C3CC3)C[C@H]2/C=C\CCCCC[C@H](NCC(F)(F)F)C(=O)N2C[C@H](OC(=O)N3Cc4cccc(F)c4C3)C[C@@H]12` [Compound 921], the IC50 in data set [2] (setting [4]) is below 100 nM. Moreover, the EC50 in data set [3] was below 1000 nM.

For the molecule `CC(C)(C)OC(=O)N[C@H]1CCCCC/C=C\[C@@H]2C[C@@]2(C(=O)Nc2n[nH]cc2C2CC2)NC(=O)[C@@H]2C[C@@H](OC(=O)N3Cc4cccc(F)c4C3)CN2C1=O` [Compound 636], in data set [2] (setting [4]), the IC50 was below 1000 nM. Further, the EC50 in data set [3] is below 100 nM.

For `CC(C)(C)OC(=O)N[C@H]1CCCCC/C=C\[C@@H]2C[C@@]2(C(=O)NS(=O)(=O)C2CC2)NC(=O)[C@@H]2C[C@@H](OC(=O)N3CCc4c(Cl)ccc(F)c4C3)CN2C1=O` [Compound 260], the IC50 in data set [2] (setting [4]) is below 100 nM. Besides, the concentration for a half-maximal effect (EC50) in data set [3] is below 100 nM.

`N[C@H]1CCCCC/C=C\[C@@H]2C[C@@]2(C(=O)NS(=O)(=O)N2CCC(F)(F)C2)NC(=O)[C@@H]2C[C@@H](OC(=O)N3Cc4cccc(Cl)c4C3)CN2C1=O` [Compound 222]: the half-maximal inhibitory concentration (IC50) in data set [2] was below 100 nM. In data set [3], the EC50 was below 10000 nM.

Consider `NC(=S)N[C@H]1CCCCC/C=C\[C@@H]2C[C@@]2(C(=O)NS(=O)(=O)C2CC2)NC(=O)[C@@H]2C[C@@H](OC(=O)N3Cc4cccc(F)c4C3)CN2C1=O` [Compound 923], for which the IC50 in data set [2] (setting [4]) was below 100 nM. For the same molecule, in data set [3], the EC50 is below 1000 nM.

`CC(C)(C)OC(=O)N[C@H]1CCC(F)(F)CC/C=C\[C@@H]2C[C@@]2(C(=O)O)NC(=O)[C@@H]2C[C@@H](OC(=O)N3Cc4cccc(F)c4C3)CN2C1=O` [Compound 1001]: in data set [2] (setting [4]), the concentration for half-maximal inhibition (IC50) was below 100 nM. In data set [3], the EC50 is below 10000 nM.

`CC(C)(C)OC(=O)N[C@H]1CCCCC/C=C\[C@@H]2C[C@@]2(C(=O)NS(=O)(=O)C2CC2)NC(=O)[C@@H]2C[C@@H](OC(=O)N3Cc4cccc(N5CCOCC5)c4C3)CN2C1=O` [Compound 158]: in data set [2] (setting [4]), the half-inhibitory concentration (IC50) was below 100 nM. Also, in data set [3], the EC50 was below 100 nM.

`CC(C)(C)OC(=O)N[C@H]1CCCCC/C=C\[C@@H]2C[C@@]2(C(=O)NCC(F)F)NC(=O)[C@@H]2C[C@@H](OC(=O)N3Cc4cccc(F)c4C3)CN2C1=O` [Compound 612]: the IC50 in data set [2] (setting [4]) is below 1000 nM. Besides, the EC50 in data set [3] was below 1000 nM.

As to `CN1CCN(c2ccc3c(c2)CN(C(=O)O[C@@H]2C[C@H]4C(=O)N[C@]5(C(=O)O)C[C@H]5/C=C\CCCCC[C@H](NC(=O)OC(C)(C)C)C(=O)N4C2)C3)CC1` [Compound 175], in data set [2] (setting [4]), the IC50 was below 100 nM. Further, in data set [3], the EC50 is above 10000 nM.

Turning to `O=C(N[C@H]1CCCCC/C=C\[C@@H]2C[C@@]2(C(=O)NS(=O)(=O)C2CC2)NC(=O)[C@@H]2C[C@@H](OC(=O)N3Cc4ccncc4C3)CN2C1=O)OC1CCCC1` [Compound 155], the IC50 in data set [2] (setting [4]) was below 100 nM. In addition, the EC50 in data set [3] was below 1000 nM.

With `CC(C)(C)OC(=O)N[C@H]1CCC(F)(F)CC/C=C\[C@@H]2C[C@@]2(C(=O)NS(=O)(=O)C2CC2)NC(=O)[C@@H]2C[C@@H](OC(=O)N3Cc4ccccc4C3)CN2C1=O` [Compound 1009], in data set [2] (setting [4]), the IC50 is below 100 nM. Also, in data set [3], the EC50 was below 100 nM.

Take `C[C@H](NC(=O)O[C@@H]1C[C@H]2C(=O)N[C@]3(C(=O)NS(=O)(=O)C4CC4)C[C@H]3/C=C\CCCCC[C@H](NC(=O)OC(C)(C)C)C(=O)N2C1)c1ccc(F)cn1` [Compound 149]: the IC50 in data set [2] (setting [4]) was below 100 nM. In data set [3], the EC50 is above 10000 nM.

With `CC(C)(C)OC(=O)N[C@H]1CCCCC/C=C\[C@@H]2C[C@@]2(C(=O)NS(=O)(=O)C2CC2)NC(=O)[C@@H]2C[C@@H](OC(=O)N3CCc4cccc(F)c4C3)CN2C1=O` [Compound 257], the IC50 in data set [2] (setting [4]) was below 100 nM. The EC50 in data set [3] is below 100 nM.

Regarding `CC(C)(C)OC(=O)N[C@H]1CCCCC/C=C\[C@@H]2C[C@@]2(C(=O)NS(=O)(=O)C2CC2)NC(=O)[C@@H]2C[C@@H](OC(=O)N3Cc4cccc(Cl)c4C3)CN2C1=O` [Compound 115], the half-inhibitory concentration (IC50) in data set [2] (setting [4]) is below 100 nM. The EC50 in data set [3] was below 100 nM.

Consider `CN(C)S(=O)(=O)NC(=O)[C@@]12C[C@H]1CCCCC(F)(F)CC[C@H](NC(=O)OC(C)(C)C)C(=O)N1C[C@H](OC(=O)N3Cc4cccc(F)c4C3)C[C@H]1C(=O)N2` [Compound 1016], for which, in data set [2] (setting [4]), the IC50 was below 100 nM. The half-maximal effective concentration (EC50) in data set [3] was below 100 nM.

Turning to `O=C1N[C@]2(C(=O)NCC3CC3)C[C@H]2/C=C\CCCCC[C@H](Nc2c(N3CCC3)c(=O)c2=O)C(=O)N2C[C@H](OC(=O)N3Cc4cccc(F)c4C3)C[C@@H]12` [Compound 647], in data set [2] (setting [4]), the IC50 is below 100 nM. Also, the EC50 in data set [3] is below 10000 nM.

`CCCNC(=O)[C@@]12C[C@H]1/C=C\CCCCC[C@H](NC(=O)OC(C)(C)C)C(=O)N1C[C@H](OC(=O)N3Cc4ccccc4C3)C[C@H]1C(=O)N2` [Compound 600]: the IC50 in data set [2] (setting [4]) is below 100 nM. For the same molecule, in data set [3], the EC50 was below 1000 nM.

For the molecule `CC(C)(C)CN[C@H]1CCCCC/C=C\[C@@H]2C[C@@]2(C(=O)NS(=O)(=O)C2CC2)NC(=O)[C@@H]2C[C@@H](OC(=O)N3Cc4cccc(F)c4C3)CN2C1=O` [Compound 920], the IC50 in data set [2] (setting [4]) is below 100 nM. Moreover, in data set [3], the concentration for a half-maximal effect (EC50) was below 100 nM.

On to `O=C(N[C@H]1CCCCC/C=C\[C@@H]2C[C@@]2(C(=O)O)NC(=O)[C@@H]2C[C@@H](OC(=O)N3Cc4ccccc4C3)CN2C1=O)C1CC1` [Compound 123], for which the IC50 in data set [2] (setting [4]) was below 100 nM. Besides, the EC50 in data set [3] was below 10000 nM.

With `CC(C)(C)OC(=O)N[C@H]1CCCCC/C=C\[C@@H]2C[C@@]2(C(=O)NS(=O)(=O)C2CC2)NC(=O)[C@@H]2C[C@@H](OC(=O)N3Cc4ccc(F)cc4C3)CN2C1=O` [Compound 111], in data set [2] (setting [4]), the IC50 is below 100 nM. Also, the EC50 in data set [3] is below 100 nM.

In the case of `CC(C)(C)OC(=O)N[C@H]1CCCCC/C=C\[C@@H]2C[C@@]2(C(=O)O)NC(=O)[C@@H]2C[C@@H](OC(=O)N3Cc4c(Cl)ccc(Cl)c4C3)CN2C1=O` [Compound 144], the IC50 in data set [2] (setting [4]) was below 100 nM. For the same molecule, the EC50 in data set [3] was below 10000 nM.

Take `O=C(N[C@H]1CCCCC/C=C\[C@@H]2C[C@@]2(C(=O)NS(=O)(=O)c2cc(Cl)sc2Cl)NC(=O)[C@@H]2C[C@@H](OC(=O)N3Cc4cccc(F)c4C3)CN2C1=O)OC1CCCC1` [Compound 173]: in data set [2] (setting [4]), the half-maximal inhibitory concentration (IC50) is below 100 nM. Also, the EC50 in data set [3] was below 100 nM.

As for `O=C1N[C@]2(C(=O)NS(=O)(=O)C3CC3)C[C@H]2/C=C\CCCCC[C@H](NCCCC(F)(F)F)C(=O)N2C[C@H](OC(=O)N3Cc4cccc(F)c4C3)C[C@@H]12` [Compound 902], the IC50 in data set [2] (setting [4]) was below 100 nM. For the same molecule, in data set [3], the EC50 was below 100 nM.

With `CN(C)S(=O)(=O)NC(=O)[C@@]12C[C@H]1/C=C\CCCCC[C@H](NC(=O)OC(C)(C)C)C(=O)N1C[C@H](OC(=O)N3Cc4c(Cl)ccc(Cl)c4C3)C[C@H]1C(=O)N2` [Compound 206], in data set [2] (setting [4]), the IC50 was below 100 nM. In data set [3], the EC50 was below 100 nM.

On to `CC(CO)(CO)C(=O)N[C@H]1CCCCC/C=C\[C@@H]2C[C@@]2(C(=O)NS(=O)(=O)C2CC2)NC(=O)[C@@H]2C[C@@H](OC(=O)N3Cc4cccc(F)c4C3)CN2C1=O` [Compound 253], for which, in data set [2] (setting [4]), the IC50 was below 100 nM. The EC50 in data set [3] was below 10000 nM.

For the molecule `CC(C)(C)OC(=O)N[C@H]1CCCCC/C=C\[C@@H]2C[C@@]2(C(=O)NS(=O)(=O)C(C)(C)C)NC(=O)[C@@H]2C[C@@H](OC(=O)N3Cc4ccccc4C3)CN2C1=O` [Compound 102], in data set [2] (setting [4]), the IC50 was below 100 nM. Also, the EC50 in data set [3] was below 1000 nM.
